Values quoted from earlier work, collected in patent US12234492B2, “Microorganism for fermentative production of 2-phenylethanol from gaseous substrates” (LanzaTech, Inc., priority 2020, dated 2025).
Where “and” joins values, the source holds several entries; their conditions need not be identical. Equal entries are not always repeated.

Assays:
Staphylococcus aureus = conditions: range given jointly for S. aureus and E. faecium; Cone et al. 1990
Enterococcus faecium = conditions: range given jointly for S. aureus and E. faecium; Cone et al. 1990

For `OCCc1ccccc1` [2-PE, 2-phenylethanol], the growth inhibitory level (Staphylococcus aureus) is listed as 26-43 mM and 3.2-5.3 g/L and the growth inhibitory level (Enterococcus faecium) is listed as 26-43 mM and 3.2-5.3 g/L.
